O=[N+]([O-])c1cn[nH]c1
solubility (mole fraction)
Settings | in acetonitrile | in ethanol | in methanol | in water
278.15 K | 0.0478 | 0.037 | 0.0491 | 0.00209
280.65 K | 0.0491 | 0.0389 | 0.0502 | 0.00218
283.15 K | 0.0508 | 0.0405 | 0.0517 | 0.00231
285.65 K | 0.0524 | 0.0429 | 0.0532 | 0.00248
288.15 K | 0.0541 | 0.045 | 0.0558 | 0.00268
290.65 K | 0.0558 | 0.047 | 0.0583 | 0.00286
293.15 K | 0.0576 | 0.0494 | 0.061 | 0.00315
295.65 K | 0.0595 | 0.0521 | 0.0638 | 0.00339
298.15 K | 0.0623 | 0.0549 | 0.067 | 0.0037
300.65 K | 0.0648 | 0.0582 | 0.0698 | 0.00401
303.15 K | 0.0674 | 0.0614 | 0.073 | 0.0044
305.65 K | 0.0703 | 0.0647 | 0.0758 | 0.00477
308.15 K | 0.0731 | 0.0677 | 0.0789 | 0.00526
310.65 K | 0.0758 | 0.0714 | 0.0817 | 0.00586
313.15 K | 0.079 | 0.0747 | 0.0848 | 0.00653
315.65 K | 0.0828 | 0.0784 | 0.0885 | 0.00724
318.15 K | 0.0872 | 0.0828 | 0.092 | 0.00802
